In patent publication US8349791B2, “Polypeptides that bind membrane proteins” (The Trustees of the University of Pennsylvania, priority 2006, dated 2013):
Square brackets hold non-standard residues; d marks the D form. Ends that are not written are not given here.

Tests used:
[1] = system: gel-filtered human platelets; test: Platelet aggregation, turbidometric; assay type: cell-based; conditions: gel-filtered human platelets
Description: Platelet-rich plasma, prepared from human blood anti-coagulated with 0.1 volume of 0.13 M sodium citrate, was gel-filtered on Sepharose 2B (Amersham Biosciences, Piscataway, N.J.) using an elution buffer containing 137 mM NaCl, 2.7 mM KCl, 1 mM MgCl2, 5.6 mM glucose, 0.35 mg/ml bovine serum albumin, 3.3 mM NaH2PO4, and 4 mM HEPES (pH=7.4), as previously described. Jordan P et al. Nature 411, 909-917 (2001). Turbidometric measurements of platelet aggregation were performed in a Chrono-Log Lumi-Dual Aggregometer. Aliquots (0.4 ml) of the gel-filtered platelet suspension were supplemented with 200 μg/ml human fibrinogen (Enzyme Research Labs., South Bend, Ind.) and 1 mM CaCl2 (final concentrations) prior to adding platelet agonists. The polypeptide was added from a DMSO solution such that the final concentration of DMSO was no greater than 0.5%. All controls also had 0.5% DMSO in the buffer.

[2] = target: T1, full-length αIIbβ3 integrin (Homo sapiens, UniProt P08514); test: Fluorescence anisotropy titration with full-length integrin; assay type: binding; conditions: N-octyl-β-D-glucopyranoside micelles, 64 nM labelled peptide, 25° C.
T1 construct: The full-length integrin aIIbβ3 protein in buffer
Description: The full-length integrin aIIbβ3 protein in buffer (7.9 mg/ml, 10 mM HEPES (pH=7.5), 60 mM N-octyl-β-D-glucopyranoside, 0.5 mM CaCl2, 0.02% NaN3) was prepared using the previously reported method. Weisel J W et al. J. Biol. Chem. 267, 16637-16643 (1992). Fluorescence polarization experiments were conducted on an ATF 105 spectrofluorometer (Aviv Biomedical, Inc., Lakewood, N.J.) using a 0.3 cm path length cuvette. Spectra were measured at 25° C. using 1.0 nm slit widths. Excitation at 408 nm was used for the coumarin-labeled polypeptide and the emission maximum at 433 nm was monitored. Anisotropy measurements were recorded upon titration of the integrin αIIbβ3 protein at varying concentrations into a polypeptide solution of 64 nM coum-anti-αIIb or coum-anti-αIIbmut. Data analysis was carried out according to previously described methods. See Yin H et al. J. Am. Chem. Soc. 127, 10191-96 (2005).

[3] = system: gel-filtered human platelets; conditions: cited from earlier work

Substance	platelet aggregation response [1]	other results
KKIFGVLTFLFGYILGALITGAVYWFVQLLAKK [anti-αIIb′]	highly active	
RAWFALFLLIFLGFLLGVATLLVQY ([dR][dA][dW][dF][dA][dL][dF][dL][dL][dI][dF][dL]G[dF][dL][dL]G[dV][dA][dT][dL][dL][dV][dQ][dY]) [d-anti-αIIb]	aggregation of gel-filtered human platelets was induced by increasing concentrations	
coum-anti-αIIb: 7-hydroxycoumarin-3-carboxamide-labeled anti-αIIb, label attached via a linker to the N-terminus (KKAYVMLLPFFIGLLLGLIFGGAFWGPARHLKK; not fully specified (N-terminus, C-terminus); also: label attached via an unspecified linker)		apparent Kdiss for αIIbβ3 [2]: 1.3±0.2×10^−5 mole fraction units
αIIb-TM: polypeptide spanning residues Trp968 to Lys989 of αIIb (WVLVGVLGGLLLLTILVLAMWK)		potency as activator of αIIbβ3 / inducer of platelet aggregation relative to anti-αIIb [3]: substantially less potent
